{"source": "patent US20040058957A1", "about": "“Benzothiophene derivatives and herbicidal compositions containing the same” (priority 2000, published 2004)", "key": {"paddy rice": {"tested_on": "paddy rice", "test": "Submersion test, treatment 3 days after transplantation: injury to paddy rice", "assay_type": "in vivo", "set-up": "key: 0: No injury; 1: Substantially no injury; 2: Slight injury; 3: Some injury; 4: Remarkable injury; 5: Almost all crops dead", "settings": "rated 30 days after application", "protocol": "A mixture consisting of 57 parts by weight of talc and 40 parts by weight of bentonite as carrier and 3 parts by weight of sodium alkylbenzenesulfonate as surfactant was pulverized and mixed uniformly to obtain a carrier for wettable powder. […] Then, rice seedlings of 2.5 leaf stage were transplanted in the soil. Water was pored into the pot so as to submerge the soil at a depth of 3 cm. The pot was placed in a greenhouse maintained at 20 to 25° C. for vegetation. […] After 30 days from the application of the herbicidal composition, the herbicidal effect and injury to the paddy rice were determined. […] The injury to crops was evaluated according to the following ratings: [table]"}, "Scirpus juncoides [1]": {"tested_on": "Scirpus juncoides", "test": "Submersion test, treatment 10 days after transplantation: herbicidal effect", "assay_type": "in vivo", "settings": "rated 30 days after application", "protocol": "(§1) A mixture consisting of 57 parts by weight of talc and 40 parts by weight of bentonite as carrier and 3 parts by weight of sodium alkylbenzenesulfonate as surfactant was pulverized and mixed uniformly to obtain a carrier for wettable powder. Each herbicidal composition was prepared by uniformly pulverizing and mixing 90 parts by weight of the carrier for wettable powder and 10 parts by weight of the benzothiophene derivative produced in each example.\n(§2) Seeds of Scirpus juncoides were sowed onto paddy field soil in a Wagner pot of 1/2000 are. Then, rice seedlings of 2.5 leaf stage were transplanted in the soil. Water was pored into the pot so as to submerge the soil at a depth of 3 cm. The pot was placed in a greenhouse maintained at 20 to 25° C. for vegetation. After 10 days from transplantation of the rice seedlings, a predetermined amount of the herbicidal composition prepared in the step [1] was applied to the pot. After 30 days from the application of the herbicidal composition, the herbicidal effect and injury to the paddy rice were determined.\n(§3) The herbicidal effect and the injury to crops in the above tests (1) and (2) were evaluated based on the following ratings.\n(§4) The degree of weed control (%) was calculated from the weights of the above-ground parts of fresh weeds in the treated area and the untreated area using the following equation:\n(§5) Degree of weed control (%)=[1−(weight of weeds in treated area)/(weight of weeds in untreated area)]×100\n(§6) The herbicidal effect was determined according to the following ratings: […]"}, "Scirpus juncoides [2]": {"tested_on": "Scirpus juncoides", "test": "Submersion test, treatment 3 days after transplantation: herbicidal effect", "assay_type": "in vivo", "settings": "rated 30 days after application", "protocol": "as §1\nas §2, with “3” for “10”\nas §3, §4, §5, §6"}}, "data": [{"smiles": "CSC1Cc2c(Cl)c(C(=O)C3C(=O)CCCC3=O)cc(C)c2S1(=O)=O", "note": "(centres unmarked) [Compound No. 43, 4-chloro-7-methyl-2-methylthio-5-(1,3-dioxocyclohex-2-yl)carbonyl-2,3-dihydrobenzothiophene 1,1-dioxide]", "values": [{"measurement": "Injury paddy rice", "setting": "paddy rice; application rate 100 g/ha", "value": 0}, {"measurement": "Injury paddy rice", "setting": "paddy rice; application rate 200 g/ha", "value": 0}, {"measurement": "Herbicidal effect Scirpus juncoides", "setting": "Scirpus juncoides [1]; application rate 100 g/ha", "value": "5 (90% or higher (almost completely dead))"}, {"measurement": "Herbicidal effect Scirpus juncoides", "setting": "Scirpus juncoides [1]; application rate 200 g/ha", "value": "5 (90% or higher (almost completely dead))"}, {"measurement": "melting point", "value": "195.5 to 197", "unit": "°C"}, {"measurement": "Herbicidal effect Scirpus juncoides", "setting": "Scirpus juncoides [2]; application rate 100 g/ha", "value": "5 (90% or higher (almost completely dead))"}, {"measurement": "Herbicidal effect Scirpus juncoides", "setting": "Scirpus juncoides [2]; application rate 200 g/ha", "value": "5 (90% or higher (almost completely dead))"}]}, {"smiles": "CSC1Cc2c(ccc(C(=O)C3C(=O)CCCC3=O)c2Cl)S1(=O)=O", "note": "(centres unmarked) [Compound No. 1, 4-chloro-2-methylthio-5-(1,3-dioxocyclohex-2-yl)carbonyl-2,3-dihydrobenzothiophene 1,1-dioxide]", "values": [{"measurement": "Injury paddy rice", "setting": "paddy rice; application rate 100 g/ha", "value": 0}, {"measurement": "Injury paddy rice", "setting": "paddy rice; application rate 200 g/ha", "value": 0}, {"measurement": "Herbicidal effect Scirpus juncoides", "setting": "Scirpus juncoides [1]; application rate 100 g/ha", "value": "5 (90% or higher (almost completely dead))"}, {"measurement": "Herbicidal effect Scirpus juncoides", "setting": "Scirpus juncoides [1]; application rate 200 g/ha", "value": "5 (90% or higher (almost completely dead))"}, {"measurement": "melting point", "value": "174.7 to 175.1", "unit": "°C"}, {"measurement": "Herbicidal effect Scirpus juncoides", "setting": "Scirpus juncoides [2]; application rate 100 g/ha", "value": "5 (90% or higher (almost completely dead))"}, {"measurement": "Herbicidal effect Scirpus juncoides", "setting": "Scirpus juncoides [2]; application rate 200 g/ha", "value": "5 (90% or higher (almost completely dead))"}]}, {"smiles": "CCSC1Cc2c(Cl)c(C(=O)C3C(=O)CCCC3=O)cc(C)c2S1(=O)=O", "note": "(centres unmarked) [Compound No. 44, 4-chloro-7-methyl-2-ethylthio-5-(1,3-dioxocyclohex-2-yl)carbonyl-2,3-dihydrobenzothiophene 1,1-dioxide]", "values": [{"measurement": "Injury paddy rice", "setting": "paddy rice; application rate 100 g/ha", "value": 0}, {"measurement": "Injury paddy rice", "setting": "paddy rice; application rate 200 g/ha", "value": 0}, {"measurement": "Herbicidal effect Scirpus juncoides", "setting": "Scirpus juncoides [1]; application rate 100 g/ha", "value": "5 (90% or higher (almost completely dead))"}, {"measurement": "Herbicidal effect Scirpus juncoides", "setting": "Scirpus juncoides [1]; application rate 200 g/ha", "value": "5 (90% or higher (almost completely dead))"}, {"measurement": "melting point", "value": "143.2 to 154.8", "unit": "°C"}, {"measurement": "Herbicidal effect Scirpus juncoides", "setting": "Scirpus juncoides [2]; application rate 100 g/ha", "value": "5 (90% or higher (almost completely dead))"}, {"measurement": "Herbicidal effect Scirpus juncoides", "setting": "Scirpus juncoides [2]; application rate 200 g/ha", "value": "5 (90% or higher (almost completely dead))"}]}, {"smiles": "CSC1Cc2c(ccc(C(=O)C3C(=O)CCCC3=O)c2C)S1(=O)=O", "note": "(centres unmarked) [Compound No. 10, 4-methyl-2-methylthio-5-(1,3-dioxocyclohex-2-yl)carbonyl-2,3-dihydrobenzothiophene 1,1-dioxide]", "values": [{"measurement": "Injury paddy rice", "setting": "paddy rice; application rate 100 g/ha", "value": 0}, {"measurement": "Injury paddy rice", "setting": "paddy rice; application rate 200 g/ha", "value": 0}, {"measurement": "Herbicidal effect Scirpus juncoides", "setting": "Scirpus juncoides [1]; application rate 100 g/ha", "value": "5 (90% or higher (almost completely dead))"}, {"measurement": "Herbicidal effect Scirpus juncoides", "setting": "Scirpus juncoides [1]; application rate 200 g/ha", "value": "5 (90% or higher (almost completely dead))"}, {"measurement": "melting point", "value": "192.7 to 193.2", "unit": "°C"}, {"measurement": "Herbicidal effect Scirpus juncoides", "setting": "Scirpus juncoides [2]; application rate 100 g/ha", "value": "5 (90% or higher (almost completely dead))"}, {"measurement": "Herbicidal effect Scirpus juncoides", "setting": "Scirpus juncoides [2]; application rate 200 g/ha", "value": "5 (90% or higher (almost completely dead))"}]}, {"smiles": "COC(=O)C(C(=O)OC)C1=C(C(=O)c2ccc3c(c2Cl)CC(SC)S3(=O)=O)C(=O)CCC1", "note": "(centres unmarked) [Compound No. 40, 4-chloro-2-methylthio-5-[3-(bis-methoxycarbonyl)methyl-1-oxo-2-cyclohexen-2-yl]carbonyl-2,3-dihydrobenzothiophene 1,1-dioxide]", "values": [{"measurement": "Injury paddy rice", "setting": "paddy rice; application rate 100 g/ha", "value": 0}, {"measurement": "Injury paddy rice", "setting": "paddy rice; application rate 200 g/ha", "value": 0}, {"measurement": "Herbicidal effect Scirpus juncoides", "setting": "Scirpus juncoides [1]; application rate 100 g/ha", "value": "4 (70% or higher but less than 90%)"}, {"measurement": "Herbicidal effect Scirpus juncoides", "setting": "Scirpus juncoides [1]; application rate 200 g/ha", "value": "5 (90% or higher (almost completely dead))"}, {"measurement": "melting point", "value": "150.3 to 150.5", "unit": "°C"}, {"measurement": "Herbicidal effect Scirpus juncoides", "setting": "Scirpus juncoides [2]; application rate 100 g/ha", "value": "4 (70% or higher but less than 90%)"}, {"measurement": "Herbicidal effect Scirpus juncoides", "setting": "Scirpus juncoides [2]; application rate 200 g/ha", "value": "5 (90% or higher (almost completely dead))"}]}]}
